# Data as given in patent US7485667B2, “Acetylenic aryl sulfonate hydroxamic acid tace and matrix metalloproteinase inhibitors” (Wyeth Holdings Corporation, priority 2002, dated 2009).
# How the values were obtained:
# MMP-1 = molecular target: T1, MMP-1 (Homo sapiens, UniProt P03956); experiment: MMP-1 inhibition (thiopeptide or fluorescent peptide substrate); type: biochemical; conditions: read-out: MMP-1 % Inhib
# T1 sequence (P03956 100-469): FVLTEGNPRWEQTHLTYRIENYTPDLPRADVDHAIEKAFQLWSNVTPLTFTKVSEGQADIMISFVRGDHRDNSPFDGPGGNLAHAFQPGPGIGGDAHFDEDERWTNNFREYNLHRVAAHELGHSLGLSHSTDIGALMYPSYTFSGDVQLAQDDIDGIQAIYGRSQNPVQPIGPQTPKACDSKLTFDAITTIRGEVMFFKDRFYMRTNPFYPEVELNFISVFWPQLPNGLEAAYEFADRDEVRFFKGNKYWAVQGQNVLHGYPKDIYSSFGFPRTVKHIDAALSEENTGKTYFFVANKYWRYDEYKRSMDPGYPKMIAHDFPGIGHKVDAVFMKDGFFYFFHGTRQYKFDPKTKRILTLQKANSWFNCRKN
# Procedure: (§1) Test Procedures for Measuring MMP-1 and MMP-13 Inhibition
# (§2) These standard pharmacological test procedures are based on the cleavage of a thiopeptide substrates such as Ac-Pro-Leu-Gly(2-mercapto-4-methyl-pentanoyl)-Leu-Gly-OEt by the matrix metalloproteinases MMP-1 or MMP-13 (collagenases) which results in the release of a substrate product that reacts colorimetrically with DTNB (5,5′-dithiobis(2-nitro-benzoic acid)). The enzyme activity is measured by the rate of the color increase. The thiopeptide substrate is made up fresh as a 20 mM stock in 100% DMSO and the DTNB is dissolved in 100% DMSO as a 100 mM stock and stored in the dark at room temperature. Both the substrate and DTNB are diluted together to 1 mM with substrate buffer (50 mM HEPES pH 7.5, 5 mM CaCl2) before use. The stock of enzyme is diluted with buffer (50 mM HEPES, pH 7.5, 5 mM CaCl2, 0.02% Brij) to the desired final concentration. The buffer, enzyme, vehicle or inhibitor, and DTNB/substrate are added in this order to a 96 well plate (total reaction volume of 200 μl) and the increase in color is monitored spectrophotometrically for 5 minutes at 405 nm on a plate reader and the increase in color over time is plotted as a linear line.
# (§3) Alternatively, a fluorescent peptide substrate is used. In this test procedure, the peptide substrate contains a fluorescent group and a quenching group. Upon cleavage of the substrate by an MMP, the fluorescence that is generated is quantitated on the fluorescence plate reader. The assay is run in HCBC assay buffer (50 mM HEPES, pH 7.0, 5 mM Ca^+2, 0.02% Brij, 0.5% Cysteine), with human recombinant MMP-1 or MMP-13. The substrate is dissolved in methanol and stored frozen in 1 mM aliquots. For the assay, substrate and enzymes are diluted in HCBC buffer to the desired concentrations. Compounds are added to the 96 well plate containing enzyme and the reaction is started by the addition of substrate. The reaction is read (excitation 340 nm, emission 444 nm) for 10 min. and the increase in fluorescence over time is plotted as a linear line.
# (§4) For either the thiopeptide or fluorescent peptide test procedures, the slope of the line is calculated and represents the reaction rate. The linearity of the reaction rate is confirmed (r^2>0.85). The mean (x±sem) of the control rate is calculated and compared for statistical significance (p<0.05) with drug-treated rates using Dunnett's multiple comparison test. Dose-response relationships can be generated using multiple doses of drug and IC50 values with 95% Cl are estimated using linear regression.
# MMP-13 = MMP-13 (Homo sapiens, UniProt P45452); experiment: MMP-13 inhibition (thiopeptide or fluorescent peptide substrate); type: biochemical; conditions: read-out: MMP-13 % Inhib
# Procedure: as §1, §2, §3, §4
# [1] = molecular target: TNF-α converting enzyme (TACE) (Homo sapiens, UniProt P78536); experiment: TACE inhibition (fluorescent peptidyl substrate); type: biochemical
# Chain of TNF-α converting enzyme (TACE) (P78536 215-824, species assumed): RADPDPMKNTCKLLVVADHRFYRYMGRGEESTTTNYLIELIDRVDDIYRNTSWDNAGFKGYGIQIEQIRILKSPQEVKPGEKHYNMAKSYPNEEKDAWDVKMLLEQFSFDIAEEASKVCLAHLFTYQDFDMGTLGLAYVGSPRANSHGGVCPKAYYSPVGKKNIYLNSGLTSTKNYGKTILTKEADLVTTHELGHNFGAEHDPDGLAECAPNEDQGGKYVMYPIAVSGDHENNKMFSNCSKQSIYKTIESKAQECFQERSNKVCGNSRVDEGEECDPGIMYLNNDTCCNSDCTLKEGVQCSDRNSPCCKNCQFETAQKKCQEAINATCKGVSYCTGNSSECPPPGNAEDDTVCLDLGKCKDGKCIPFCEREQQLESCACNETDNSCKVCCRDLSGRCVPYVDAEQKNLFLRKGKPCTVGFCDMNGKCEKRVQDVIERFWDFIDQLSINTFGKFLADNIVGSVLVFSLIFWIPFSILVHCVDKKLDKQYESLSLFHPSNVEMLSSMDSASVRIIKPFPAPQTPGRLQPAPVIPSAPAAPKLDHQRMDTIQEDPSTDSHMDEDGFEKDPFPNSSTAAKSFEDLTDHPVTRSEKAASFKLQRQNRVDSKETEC
# Procedure: Test Procedure for Measuring TACE Inhibition
# Using 96-well black microtiter plates, each well receives a solution composed of 10 μL TACE (final concentration 1 μg/mL), 70 μL Tris buffer, pH 7.4 containing 10% glycerol (final concentration 10 mM), and 10 μL of test compound solution in DMSO (final concentration 1 μM, DMSO concentration <1%) and incubated for 10 minutes at room temperature. The reaction is initiated by addition of a fluorescent peptidyl substrate (final concentration 100 μM) to each well and then shaking on a shaker for 5 sec.
# The reaction is read (excitation 340 nm, emission 420 nm) for 10 min. and the increase in fluorescence over time is plotted as a linear line. The slope of the line is calculated and represents the reaction rate.
# as §4, with “The” for “For either the thiopeptide or fluorescent peptide test procedures, the slope of the line is calculated and represents the reaction rate. The”, “generate” for “generated”
# THP-1 cells = experiment: THP-1 soluble protein assay (LPS-stimulated THP-1 cells, ELISA); type: cell-based; conditions: Homo sapiens
# Source text: Human Monocytic THP-1 Cell Differentiation Assay for Soluble Proteins (THP-1 Soluble Protein Assay)
# Mitogenic stimulation of THP-1 cells cause differentiation into macrophage like cells with concomitant secretion of tumor necrosis factor (TNF-a) and TNF receptor (TNF-R p75/80 and TNF-R p55/60) and Interleukin-8 (IL-8), among other proteins. In addition, non-stimulated THP-1 cells shed both the p75/80 and the p55/60 receptors over time. The release of membrane bound TNF-α and possibly TNF-R p75/80 and TNF-R p55/60, but not IL-8, is mediated by an enzyme called TNF-a converting enzyme or TACE.
# THP-1 cells (from ATCC) are a human monocytic cell line which are obtained from the peripheral blood of a person with acute monocytic leukemia. They can be grown in culture and differentiated into macrophage like cells by stimulation with mitogens.
# For the assay, THP-1 cells are seeded from an ATCC stock which is previously grown and frozen back at 5×10^6/ml/vial. One vial is seeded into a T25-flask with 16 mls of RPMI-1640 with glutamax (Gibco) media containing 10% fetal bovine serum, 100 units/ml penicillin, 100 μg/ml streptomycin, and 5×10^−5 M 2-mercapto-ethanol (THP-1 media). Each vial of cells are cultured for about two weeks prior to being used for an assay and then are used for only 4 to 6 weeks to screen compounds. Cells are subcultured on Mondays and Thursdays to a concentration of 1×10^5/ml.
# To perform an assay, the THP-1 cells are co-incubated in a 24 well plate with […] of a 24 mg/ml stock of Lipopolysacharide (LPS) (Calbiochem Lot# B13189) at 37° C. in 5% CO2 at a concentration of 1.091×10^6 cells/ml (1.1 ml/well) for a total of 24 hours. At the same time, […] of drug, vehicle or THP-1 media is plated in appropriate wells to give a final volume of 1.2 ml/well. Standard and test compounds are dissolved in DMSO at a concentration of 36 mM and diluted from here to the appropriate concentrations in THP-1 media and added to the wells at the beginning of the incubation period to give final concentrations of […], 300 nM, and 100 nM. Cell exposure to DMSO is limited to 0.1% final concentration. Positive control wells are included in the experiment which had mitogen added but no drug. Vehicle control wells are included as well, which are identical to the positive control wells, except that DMSO is added to give a final concentration of 0.083%. Negative control wells are included in the experiment which had vehicle but no mitogen or drug added to the cells. Compounds can be evaluated for their effect on basal (non-stimulated) shedding of the receptors by replacing the LPS with […] of THP-1 media. Plates are placed into an incubator set at 5% CO2 and at 37° C. […]
# In addition, at the 24 hours timepoint, and the cells for each treatment group are collected by resuspension in 500 μl/well of THP-1 media and transferred into a FACS tube. […] The samples are run on a Becton Dickinson FaxCaliber FLOW cytometry machine and the amount of dye taken up by each cell is measured in the high red wavelength (FL3). […] The percent of live cells is calculated by the number of cells not stained with PI, divided by the total number of cells in the sample. The viability values calculated for the drug treated groups are compared to the viability value calculated for the vehicle treated mitogen stimulated group (“vehicle positive control”) to determine the “percent change from control”. […]
Compound,inhibition at 10 µM (MMP-1) [%],inhibition at 10 µM (MMP-13) [%],IC50 [1] [nM],inhibition at 1 µM (THP-1 cells) [%]
"CC#CCOc1ccc(S(=O)(=O)Oc2ccc(C)cc2C(=O)NO)cc1 [Example 3, 2-[(Hydroxyamino)carbonyl]-4-methylphenyl 4-(2-butynyloxy)benzenesulfonate]",11,27,31,0
"CC#CCOc1ccc(S(=O)(=O)Oc2c(OC)cccc2C(=O)NO)cc1 [Example 2, 2-[(Hydroxyamino)carbonyl]-6-methoxyphenyl 4-(2-butynyloxy)benzenesulfonate]",7,56,13,1
"CC#CCOc1ccc(S(=O)(=O)Oc2cc3ccccc3cc2C(=O)NO)cc1 [Example 5, 3-[(Hydroxyamino)carbonyl]-2-naphthyl 4-(2-butynyloxy)benzenesulfonate]",16,64,67,0

# Continued by falling IC50 [1], values first:
inhibition at 10 µM (MMP-1) [%],inhibition at 10 µM (MMP-13) [%],IC50 [1] [nM],Compound,inhibition at 1 µM (THP-1 cells) [%]
3,45,361,"CC#CCOc1ccc(S(=O)(=O)Oc2c(C(=O)NO)cc(C(C)C)cc2C(C)C)cc1 [Example 4, 2-[(Hydroxyamino)carbonyl]-4,6-diisopropylphenyl 4-(2-butynyloxy)benzenesulfonate]",6
11,38,19,"CC#CCOc1ccc(S(=O)(=O)Oc2c(C)cccc2C(=O)NO)cc1 [Example 1, 2-[(Hydroxyamino)carbonyl]-6-methylphenyl 4-(2-butynyloxy)benzenesulfonate]",11
